The results in this text go back to patent publication US6825308B1, “Copolymers and preparation thereof” (Council of Scientific and Industrial Research, priority 2003, dated 2004).

For this test, the target named is lysozyme (Gallus gallus, UniProt P00698). Description: Relative inhibition of lysozyme, Micrococcus lysodeikticus as substrate (Neuberger and Wilson). Format: biochemical. Conditions: pH 6.2, 20° C. Here is the method: This example describes the estimation of inhibition of lysozyme by copolymers.
lysozyme, sequence (P00698 19-147): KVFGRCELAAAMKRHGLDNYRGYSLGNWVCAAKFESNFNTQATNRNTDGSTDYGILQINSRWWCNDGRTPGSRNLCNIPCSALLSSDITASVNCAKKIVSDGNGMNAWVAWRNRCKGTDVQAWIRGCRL
Micrococcus lysodeikticus is a substrate for the enzyme lysozyme. Relative binding of copolymers was estimated by using a procedure reported by Neuberger and Wilson (1967).
1.5% w/v stock solutions of copolymer was prepared in 0.0066 M phosphate buffer pH 6.2 containing 0.0154 m sodium chloride and 0.008 M sodium azide. One milliliter of stock solution containing different copolymer concentration was mixed with 1.6 ml of 78 μg/ml of Micrococcus lysodeikticus in a 3-ml capacity glass cuvette. The mixture was incubated for 5 minutes at 20° C. To this mixture 0.1 ml of lysozyme (27 μg/ml) was added and mixed thoroughly. The relative absorbance at 450 nm (Δ450) was recorded for 30 seconds. A blank reading without the copolymer was noted and the change in the absorbance per second was calculated. Then relative inhibition was calculated.

As for `CC(=O)N[C@H]1C(O)O[C@H](CO)[C@@H](O)[C@@H]1O` (some centres unmarked) [NAG, N-Acetyl Glucosamine], the “Imax” value (concentration at Imax) came to 92.5 mM and the Imax (maximum relative inhibition of lysozyme) came to 55.29.
